# Experiments:
# Settings in all cases: treatment: drug + dasatinib (fixed dose, not stated); 5 days
# SN12C [1] = experiment: AUC of dose-response viability curve, drug + dasatinib, normalised to DMSO (arbitrary (AUC of normalised viability)); higher = less growth inhibition
# Description: (§1)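 Primary HTS combination arm: 8 RCC cell lines treated with 8 doses (up to 10 uM) of each library drug plus a fixed dose of dasatinib (dose not stated) for 5 days; viability read by CellTiter-Glo and normalised to DMSO. GI50 was fitted with XLfit, AUC is the area under the dose-response curve, and minimum viability is the lowest fraction of DMSO viability across doses.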
# TK-10 [2] = experiment: as above
# Description: as §1
# 769-P [3] = experiment: as above
# Description: as §1
# ACHN [4] = experiment: as above
# Description: as §1
# A498 [5] = experiment: as above
# Description: as §1
# CAKI-1 [6] = experiment: as above
# Description: as §1
# UO-31 [7] = experiment: as above
# Description: as §1
# 786-O [8] = experiment: as above
# Description: as §1
# SN12C [9] = experiment: GI50 of drug in presence of dasatinib; higher = less potent
# Description: as §1
# TK-10 [10] = experiment: as above
# Description: as §1
# 769-P [11] = experiment: as above
# Description: as §1
# ACHN [12] = experiment: as above
# Description: as §1
# A498 [13] = experiment: as above
# Description: as §1
# CAKI-1 [14] = experiment: as above
# Description: as §1
# UO-31 [15] = experiment: as above
# Description: as §1
# 786-O [16] = experiment: as above
# Description: as §1
# SN12C [17] = experiment: minimum viability across doses, drug + dasatinib, relative to DMSO (fraction); higher = less growth inhibition
# Description: as §1
# TK-10 [18] = experiment: as above
# Description: as §1
# 769-P [19] = experiment: as above
# Description: as §1
# ACHN [20] = experiment: as above
# Description: as §1
# A498 [21] = experiment: as above
# Description: as §1
# CAKI-1 [22] = experiment: as above
# Description: as §1
# UO-31 [23] = experiment: as above
# Description: as §1
# 786-O [24] = experiment: as above
# Description: as §1
Structure (SMILES),GI50 of drug (ACHN [12]) [nM],GI50 of drug (786-O [16]) [nM],AUC of dose-response viability curve (SN12C [1]),AUC of dose-response viability curve (TK-10 [2]),AUC of dose-response viability curve (769-P [3]),AUC of dose-response viability curve (ACHN [4]),AUC of dose-response viability curve (A498 [5]),AUC of dose-response viability curve (CAKI-1 [6]),AUC of dose-response viability curve (UO-31 [7]),AUC of dose-response viability curve (786-O [8]),GI50 of drug (SN12C [9]) [nM],GI50 of drug (TK-10 [10]) [nM],GI50 of drug (769-P [11]) [nM],GI50 of drug (A498 [13]) [nM],GI50 of drug (CAKI-1 [14]) [nM],GI50 of drug (UO-31 [15]) [nM],minimum viability across doses (SN12C [17]),minimum viability across doses (TK-10 [18]),minimum viability across doses (769-P [19]),minimum viability across doses (ACHN [20]),minimum viability across doses (A498 [21]),minimum viability across doses (CAKI-1 [22]),minimum viability across doses (UO-31 [23]),minimum viability across doses (786-O [24])
CN1CCN(CCOc2cc(OC3CCOCC3)c3c(Nc4c(Cl)ccc5c4OCO5)ncnc3c2)CC1 [Saracatinib (AZD0530)] + Cc1nc(Nc2ncc(C(=O)Nc3c(C)cccc3Cl)s2)cc(N2CCN(CCO)CC2)n1 [dasatinib],366,2000,2.39,2.19,1.68,1.79,3.19,2.01,2.51,2.28,> 10000,709,311,> 10000,878,1090,0.536,0.102,0.0614,0.192,0.616,0.14,0.158,0.333
CNC(=O)c1cc(Oc2ccc(NC(=O)Nc3ccc(Cl)c(C(F)(F)F)c3)cc2)ccn1.Cc1ccc(S(=O)(=O)O)cc1 [Sorafenib (Nexavar)] + Cc1nc(Nc2ncc(C(=O)Nc3c(C)cccc3Cl)s2)cc(N2CCN(CCO)CC2)n1 [dasatinib],3170,2200,2.52,2.72,2.31,2.33,2.94,2.42,2.41,2.32,5960,9080,3770,7050,4810,1530,0.265,0.471,0.249,0.0615,0.245,0.118,0.138,0.174
CN1CCN(c2nc(C3=C(c4c[nH]c5ccccc45)C(=O)NC3=O)c3ccccc3n2)CC1 [Sotrastaurin (AEB071)] + Cc1nc(Nc2ncc(C(=O)Nc3c(C)cccc3Cl)s2)cc(N2CCN(CCO)CC2)n1 [dasatinib],> 10000,> 10000,2.45,2.84,2.3,2.04,3.6,2.44,4.79,3.14,> 10000,> 10000,> 10000,> 10000,> 10000,> 10000,0.661,0.663,0.673,0.536,0.904,0.555,1.16,0.674
CN[C@@H]1C[C@H]2O[C@@](C)([C@@H]1OC)n1c3ccccc3c3c4c(c5c6ccccc6n2c5c31)C(=O)NC4 [Staurosporine] + Cc1nc(Nc2ncc(C(=O)Nc3c(C)cccc3Cl)s2)cc(N2CCN(CCO)CC2)n1 [dasatinib],3.6,< 3,0.755,0.303,0.201,0.372,1.07,0.0603,0.0461,0.109,10.4,< 3,< 3,32.3,< 3,< 3,0.00331,0.0201,0.0048,0.00268,0.0115,0.00221,0.0095,0.00375
CCS(=O)(=O)c1cccc(-c2cc(C(=O)NC3CCN(C)CC3)c(C)c3[nH]c4ncc(C)cc4c23)c1 [TAK-901] + Cc1nc(Nc2ncc(C(=O)Nc3c(C)cccc3Cl)s2)cc(N2CCN(CCO)CC2)n1 [dasatinib],235,171,1.52,1.93,2.27,1.5,2.63,1.62,4.3,1.55,347,607,4010,588,318,8850,0.00509,0.0604,0.344,0.0237,0.013,0.0186,0.287,0.00567

# The next lines start with results.
GI50 of drug (ACHN [12]) [nM],GI50 of drug (786-O [16]) [nM],Structure (SMILES),AUC of dose-response viability curve (SN12C [1]),AUC of dose-response viability curve (TK-10 [2]),AUC of dose-response viability curve (769-P [3]),AUC of dose-response viability curve (ACHN [4]),AUC of dose-response viability curve (A498 [5]),AUC of dose-response viability curve (CAKI-1 [6]),AUC of dose-response viability curve (UO-31 [7]),AUC of dose-response viability curve (786-O [8]),GI50 of drug (SN12C [9]) [nM],GI50 of drug (TK-10 [10]) [nM],GI50 of drug (769-P [11]) [nM],GI50 of drug (A498 [13]) [nM],GI50 of drug (CAKI-1 [14]) [nM],GI50 of drug (UO-31 [15]) [nM],minimum viability across doses (SN12C [17]),minimum viability across doses (TK-10 [18]),minimum viability across doses (769-P [19]),minimum viability across doses (ACHN [20]),minimum viability across doses (A498 [21]),minimum viability across doses (CAKI-1 [22]),minimum viability across doses (UO-31 [23]),minimum viability across doses (786-O [24])
> 10000,> 10000,Cc1cc(C)c(/C=C2\C(=O)Nc3ccccc32)[nH]1 [Semaxanib (SU5416)] + Cc1nc(Nc2ncc(C(=O)Nc3c(C)cccc3Cl)s2)cc(N2CCN(CCO)CC2)n1 [dasatinib],2.46,2.54,2.48,1.99,3.96,2.21,4.67,2.4,> 10000,> 10000,> 10000,> 10000,> 10000,> 10000,0.666,0.657,0.658,0.472,1.01,0.584,1.2,0.606
281,2520,CCN(CC)CCNC(=O)c1c(C)[nH]c(/C=C2\C(=O)Nc3ccc(F)cc32)c1C.O=C(O)C[C@H](O)C(=O)O [Sunitinib Malate (Sutent)] + Cc1nc(Nc2ncc(C(=O)Nc3c(C)cccc3Cl)s2)cc(N2CCN(CCO)CC2)n1 [dasatinib],1.88,2.52,2.26,1.58,2.52,1.81,2.59,2.49,1530,2860,3140,2020,496,1020,0.0218,0.221,0.0812,0.0769,0.167,0.00649,0.0138,0.0195

# — the supplement of paper PMC8149375
